# Results published in patent publication US20240368096A1 (Enanta Pharmaceuticals, Inc., priority 2022, published 2024).
# Test system: HBV
# Assay: HBV infection in HepG2-NTCP cells (HBeAg AlphaLISA in supernatants)
# Assay type: cell-based
# Settings: Hepatitis B virus, 192 h; HBV infection of HepG2-NTCP cells; HBeAg in supernatants at day 8 post infection; read-out: Cellular EC50
# Outline: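 Readout was day-8 supernatant HBeAg by AlphaLISA, with EC50 set against DMSO controls and binned A<0.1 μM, B 0.1-1 μM, C>1 μM. Compounds were added 2 h before HBV (2000 GE/cell, 4% PEG, 0.5% DMSO) to HepG2-NTCP A3 cells; from day 1 medium held 2.5% DMSO.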
row,SMILES,EC50 [nM]
1,"CN1[C@H](C2CCCCC2)CN(c2cncc(F)c2)c2cc(Cl)c(-c3ccc(F)c(C(=O)O)c3)cc2S1(=O)=O [Example 280, (R)-5-(7-chloro-3-cyclohexyl-5-(5-fluoropyridin-3-yl)-2-methyl-1,1-dioxido-2,3,4,5-tetrahydrobenzo[f][1,2,5]thiadiazepin-8-yl)-2-fluorobenzoic acid]",100 to 1000
2,CN1[C@H](C2CCCCC2)CN(c2cncc(C(F)(F)F)c2)c2cc(Cl)c(-c3ccc(F)c(C(=O)O)c3)cc2S1(=O)=O [Example 282],100 to 1000
3,CN1[C@H](C2CCCCC2)CN(c2ccncc2)c2cc(Cl)c(-c3ccc(F)c(C(=O)O)c3)cc2S1(=O)=O [Example 283],> 1000
4,Cc1cc(N2C[C@@H](C3CCCCC3)N(C)S(=O)(=O)c3cc(-c4ccc(F)c(C(=O)O)c4)c(Cl)cc32)ccn1 [Example 285],> 1000
5,CN1[C@H](C2CCCCC2)CN(c2cncnc2)c2cc(Cl)c(-c3ccc(F)c(C(=O)O)c3)cc2S1(=O)=O [Example 286],100 to 1000
6,Cc1ncc(N2C[C@@H](C3CCCCC3)N(C)S(=O)(=O)c3cc(-c4ccc(F)c(C(=O)O)c4)c(Cl)cc32)cn1 [Example 287],100 to 1000
7,CN1[C@H](C2CCCCC2)CN(c2cnc(C(F)(F)F)nc2)c2cc(Cl)c(-c3ccc(F)c(C(=O)O)c3)cc2S1(=O)=O [Example 288],100 to 1000
8,CN1[C@H](C2CCCCC2)CN(c2cnccn2)c2cc(Cl)c(-c3ccc(F)c(C(=O)O)c3)cc2S1(=O)=O [Example 289],100 to 1000
9,CN1[C@H](C2CCCCC2)CN(c2ccc(C#N)cc2)c2cc(Cl)c(-c3ccc(F)c(C(=O)O)c3)cc2S1(=O)=O [Example 290],100 to 1000
10,CN1[C@H](C2CCCCC2)CN(c2ccc(F)cc2)c2cc(Cl)c(-c3ccc(F)c(C(=O)O)c3)cc2S1(=O)=O [Example 294],100 to 1000
11,CN1[C@H](C2CCCCC2)CN(c2cccc(F)c2)c2cc(Cl)c(-c3ccc(F)c(C(=O)O)c3)cc2S1(=O)=O [Example 295],100 to 1000
12,CN1[C@H](C2CCCCC2)CN(c2cc(F)c(F)c(F)c2)c2cc(Cl)c(-c3ccc(F)c(C(=O)O)c3)cc2S1(=O)=O [Example 298],100 to 1000
13,CN1[C@H](C2CCCCC2)CN(c2cc(F)cc(F)c2F)c2cc(Cl)c(-c3ccc(F)c(C(=O)O)c3)cc2S1(=O)=O [Example 299],100 to 1000
14,CN1[C@H](C2CCCCC2)CN(c2cccc(C(F)(F)F)c2)c2cc(Cl)c(-c3ccc(F)c(C(=O)O)c3)cc2S1(=O)=O [Example 301],100 to 1000
15,CN1[C@H](C2CCCCC2)CN(c2ccc(C(F)(F)F)cc2F)c2cc(Cl)c(-c3ccc(F)c(C(=O)O)c3)cc2S1(=O)=O [Example 302],100 to 1000
16,CN1[C@H](C2CCCCC2)CN(c2ccc(C(F)F)cc2)c2cc(Cl)c(-c3ccc(F)c(C(=O)O)c3)cc2S1(=O)=O [Example 303],100 to 1000

row,SMILES,EC50 [nM]
1,COc1cccc(N2C[C@@H](C3CCCCC3)N(C)S(=O)(=O)c3cc(-c4ccc(F)c(C(=O)O)c4)c(Cl)cc32)c1 [Example 305],100 to 1000
2,"COc1ccc(N2C[C@@H](C3CCCCC3)N(C)S(=O)(=O)c3cc(-c4ccc(F)c(C(=O)O)c4)c(Cl)cc32)cc1 [Example 306, (R)-5-(7-chloro-3-cyclohexyl-5-(4-methoxyphenyl)-2-methyl-1,1-dioxido-2,3,4,5-tetrahydrobenzo[f][1,2,5]thiadiazepin-8-yl)-2-fluorobenzoic acid]",100 to 1000
3,CCOc1ccc(N2C[C@@H](C3CCCCC3)N(C)S(=O)(=O)c3cc(-c4ccc(F)c(C(=O)O)c4)c(Cl)cc32)cc1 [Example 309],100 to 1000
4,CCCCOc1ccc(N2C[C@@H](C3CCCCC3)N(C)S(=O)(=O)c3cc(-c4ccc(F)c(C(=O)O)c4)c(Cl)cc32)cc1 [Example 311],100 to 1000
5,"CN1[C@H](C2CCCCC2)CN(CC2CC2)c2cc(Cl)c(-c3ccc(F)c(C(=O)O)c3)cc2S1(=O)=O [Example 319, (R)-5-(7-chloro-3-cyclohexyl-5-(cyclopropylmethyl)-2-methyl-1,1-dioxido-2,3,4,5-tetrahydrobenzo[f][1,2,5]thiadiazepin-8-yl)-2-fluorobenzoic acid]",100 to 1000
6,CN1[C@H](C2CCCCC2)CN(C2CCC2)c2cc(Cl)c(-c3ccc(F)c(C(=O)O)c3)cc2S1(=O)=O [Example 322],100 to 1000
7,CCCCCCN1C[C@@H](C2CCCCC2)N(C)S(=O)(=O)c2cc(-c3ccc(F)c(C(=O)O)c3)c(Cl)cc21 [Example 324],100 to 1000
8,"CC(C)CC1CN(C2CCCC2)c2cc(Cl)c(-c3cccc(C(=O)O)c3)cc2S(=O)(=O)N1C (stereo not shown) [Example 326, 3-(7-chloro-5-cyclopentyl-3-isobutyl-2-methyl-1,1-dioxido-2,3,4,5-tetrahydrobenzo[f][1,2,5]thiadiazepin-8-yl)benzoic acid]",100 to 1000
9,CC(C)CC1CN(C2CC2)c2cc(Cl)c(-c3cccc(C(=O)O)c3)cc2S(=O)(=O)N1C (stereo not shown) [Example 327],100 to 1000
10,CC(C)CC1CN(C2CCC2)c2cc(Cl)c(-c3cccc(C(=O)O)c3)cc2S(=O)(=O)N1C (stereo not shown) [Example 328],100 to 1000
11,CC(C)CC1CN(c2cccc(F)c2)c2cc(Cl)c(-c3cccc(C(=O)O)c3)cc2S(=O)(=O)N1C (stereo not shown) [Example 329],100 to 1000
12,CC(C)CC1CN(c2ccccc2F)c2cc(Cl)c(-c3cccc(C(=O)O)c3)cc2S(=O)(=O)N1C (stereo not shown) [Example 330],100 to 1000
13,CC(C)CC1CN(c2ccc(F)cc2)c2cc(Cl)c(-c3cccc(C(=O)O)c3)cc2S(=O)(=O)N1C (stereo not shown) [Example 331],100 to 1000
14,CN1[C@H](C2CCCCC2)CN(c2ccccc2)c2cc(OCc3nccs3)c(-c3ccc(F)c(C(=O)O)c3)cc2S1(=O)=O [Example 340],< 100
15,CN1[C@H](C2CCCCC2)CN(c2ccccc2)c2cc(OCc3cscn3)c(-c3ccc(F)c(C(=O)O)c3)cc2S1(=O)=O [Example 341],< 100
16,Cc1cnc(COc2cc3c(cc2-c2ccc(F)c(C(=O)O)c2)S(=O)(=O)N(C)[C@H](C2CCCCC2)CN3c2ccccc2)s1 [Example 342],< 100

# Continued, values first:
row,EC50 [nM],SMILES
1,< 100,CC(C)COC(=O)Nc1c(F)cc(-c2cc3c(cc2Cl)N(c2ccccc2)C[C@@H](C2CCCCC2)N(C)S3(=O)=O)cc1C(=O)O [Example 277]
2,< 100,COc1cc(-c2cc3c(cc2Cl)N(c2ccccc2)C[C@@H](C2CCCCC2)N(C)S3(=O)=O)cc(C(=O)O)c1NC(=O)OCC(C)C [Example 278]
3,< 100,CC(C)COC(=O)Nc1c(Cl)cc(-c2cc3c(cc2Cl)N(c2ccccc2)C[C@@H](C2CCCCC2)N(C)S3(=O)=O)cc1C(=O)O [Example 279]
4,< 100,Cc1cncc(N2C[C@@H](C3CCCCC3)N(C)S(=O)(=O)c3cc(-c4ccc(F)c(C(=O)O)c4)c(Cl)cc32)c1 [Example 281]
5,< 100,CN1[C@H](C2CCCCC2)CN(c2ccnc(F)c2)c2cc(Cl)c(-c3ccc(F)c(C(=O)O)c3)cc2S1(=O)=O [Example 284]
6,< 100,CN1[C@H](C2CCCCC2)CN(c2cccc(C#N)c2)c2cc(Cl)c(-c3ccc(F)c(C(=O)O)c3)cc2S1(=O)=O [Example 291]
7,< 100,CN1[C@H](C2CCCCC2)CN(c2ccc(OC(F)(F)F)cc2)c2cc(Cl)c(-c3ccc(F)c(C(=O)O)c3)cc2S1(=O)=O [Example 292]
8,< 100,CN1[C@H](C2CCCCC2)CN(c2cccc(OC(F)(F)F)c2)c2cc(Cl)c(-c3ccc(F)c(C(=O)O)c3)cc2S1(=O)=O [Example 293]
9,< 100,CN1[C@H](C2CCCCC2)CN(c2cccc(Cl)c2)c2cc(Cl)c(-c3ccc(F)c(C(=O)O)c3)cc2S1(=O)=O [Example 296]
10,< 100,CN1[C@H](C2CCCCC2)CN(c2cc(F)cc(F)c2)c2cc(Cl)c(-c3ccc(F)c(C(=O)O)c3)cc2S1(=O)=O [Example 297]
11,< 100,CN1[C@H](C2CCCCC2)CN(c2ccc(C(F)(F)F)cc2)c2cc(Cl)c(-c3ccc(F)c(C(=O)O)c3)cc2S1(=O)=O [Example 300]
12,< 100,CCOc1cccc(N2C[C@@H](C3CCCCC3)N(C)S(=O)(=O)c3cc(-c4ccc(F)c(C(=O)O)c4)c(Cl)cc32)c1 [Example 308]
13,< 100,CCCCOc1cccc(N2C[C@@H](C3CCCCC3)N(C)S(=O)(=O)c3cc(-c4ccc(F)c(C(=O)O)c4)c(Cl)cc32)c1 [Example 310]
14,< 100,COCCOc1cccc(N2C[C@@H](C3CCCCC3)N(C)S(=O)(=O)c3cc(-c4ccc(F)c(C(=O)O)c4)c(Cl)cc32)c1 [Example 312]
15,< 100,CN1[C@H](C2CCCCC2)CN(c2cccc(OCC(F)(F)F)c2)c2cc(Cl)c(-c3ccc(F)c(C(=O)O)c3)cc2S1(=O)=O [Example 313]
16,< 100,CN1[C@H](C2CCCCC2)CN(c2ccc3c(c2)OC(F)(F)O3)c2cc(Cl)c(-c3ccc(F)c(C(=O)O)c3)cc2S1(=O)=O [Example 314]
17,< 100,"CN1[C@H](C2CCCCC2)CN(c2ccccc2)c2cc(OCc3ccccc3)c(-c3ccc(F)c(C(=O)O)c3)cc2S1(=O)=O [Example 332, (R)-5-(7-(benzyloxy)-3-cyclohexyl-2-methyl-1,1-dioxido-5-phenyl-2,3,4,5-tetrahydrobenzo[f][1,2,5]thiadiazepin-8-yl)-2-fluorobenzoic acid]"
18,< 100,CN1[C@H](C2CCCCC2)CN(c2ccccc2)c2cc(OCc3ccoc3)c(-c3ccc(F)c(C(=O)O)c3)cc2S1(=O)=O [Example 333]
19,< 100,CN1[C@H](C2CCCCC2)CN(c2ccccc2)c2cc(OCc3ccco3)c(-c3ccc(F)c(C(=O)O)c3)cc2S1(=O)=O [Example 334]
20,< 100,CN1[C@H](C2CCCCC2)CN(c2ccccc2)c2cc(OCc3cccs3)c(-c3ccc(F)c(C(=O)O)c3)cc2S1(=O)=O [Example 335]
21,< 100,CC(Oc1cc2c(cc1-c1ccc(F)c(C(=O)O)c1)S(=O)(=O)N(C)[C@H](C1CCCCC1)CN2c1ccccc1)c1ccsc1 (stereo partly shown) [Example 337]
22,< 100,Cc1cscc1COc1cc2c(cc1-c1ccc(F)c(C(=O)O)c1)S(=O)(=O)N(C)[C@H](C1CCCCC1)CN2c1ccccc1 [Example 338]
23,< 100,Cc1sccc1COc1cc2c(cc1-c1ccc(F)c(C(=O)O)c1)S(=O)(=O)N(C)[C@H](C1CCCCC1)CN2c1ccccc1 [Example 339]
